# Experimental data from patent US7531507B2, “Acylated nonadepsipeptides containing pyridyl alanine residues” (AiCuris GmbH & Co. KG, priority 2004, dated 2009).
# Counter-ions that a name gives are not always drawn. Like-named read-outs stand apart in the source and are kept apart here. Starred links: 1 amine or outer side, 2 acyl side, 3 side chain; linkers in the order of their positions; H or OH if unused. Positions of bridges follow the written chain, without caps; N, C: chain ends. Non-standard residues stand in square brackets, D forms with d. Residues, ends and D or L forms follow the SMILES beside them. *: point of attachment. X3 = CCC(C)(C)C[C@@H](N)C(=O)N[C@@H](Cc1cccnc1)C(=O)N[C@H](C(N)=O)[C@H](O*)c1ccccc1; Phe(3R-OH) = O=C([C@@H](N[*:1])[C@H](O[*:3])c1ccccc1)[*:2]; Asn(3S-OH) = NC(=O)[C@@H](O)[C@H](N)C(=O)O; Leu(3R-OH) = CC(C)[C@@H](O)[C@H](N)C(=O)O; dAla(TMS) = C[Si](C)(C)C[C@@H](N)C(=O)O; X1 = CC(C)[C@@H](O)[C@H](C)C(=O)*; 3Pal = N[C@@H](Cc1cccnc1)C(=O)O; aThr = C[C@H](O)[C@H](N)C(=O)O
# Key:
# [1] = tested on: Staphylococcus aureus 133; format: cell-based
# Protocol: (§1) Determination of the Minimum Inhibitory Concentration (MIC):
# (§2) The MIC is determined in the liquid dilution test in accordance with the NCCLS guidelines. Overnight cultures of Staphylococcus aureus 133, Enterococcus faecalis 27159, E. faecium 4147 and Streptococcus pneumoniae G9a are incubated with the described test substances in a 1:2 dilution series. The MIC determination is carried out with a cell count of 10^5 microbes per ml in Isosensitest medium (Difco, Irvine/USA), with the exception of S. pneumoniae which is tested in BHI broth (Difco, Irvine/USA) with 10% bovine serum with a cell count of 10^6 microbes per ml. The cultures are incubated at 37° C. for 18-24 hours, S. pneumoniae in the presence of 10% CO2.
# (§3) The MIC is defined as the lowest concentration of each substance at which visible bacterial growth no longer occurs. The MIC values are reported in μg/ml.
# [2] = tested on: Streptococcus pneumoniae G9a; format: cell-based
# Protocol: as §1, §2, §3
# E. faecium L4001 = format: cell-based, Enterococcus faecium; conditions: Isosensitest medium, 10^5 microbes per ml, 37° C., 18-24 hours
# E. faecalis ICB 27159 = format: cell-based, Enterococcus faecalis
# Protocol: as §1, §2, §3
# [3] = Determination of the free fraction (fu) in plasma via Transil or ultrafiltration; format: in vitro ADME, rat
# Protocol: Principle of the Determination of the Free Fraction via Transil:
# The method described herein for determining the free fraction (fu) of a test substance is divided into 2 parts:
# a) Determination of the Transil®/buffer partitioning ratio (MAbuffer) by incubating the test substance in a Transil® buffer (pH 7.4) dispersion and subsequently determining the concentration in the dispersion and in the buffer supernatant.
# b) Determination of the Transil®/plasma partitioning ratio (MAplasma) by incubating the test substance in a Transil® plasma dispersion and subsequently determining the concentration in the dispersion and in the plasma.
# The quotient of the two partitioning ratios gives fu.
# Where substances are highly protein-bound, the plasma is usually diluted with isotonic phosphate buffer (pH 7.4) and then suspended with Transil®. Determination of fu′ (free fraction in diluted plasma) in this diluted protein solution takes place in analogy to the determination of fu. The free fraction in undiluted plasma is calculated from fu′ and the dilution factor.
# Concerning this method, compare also: Schuhmacher, Joachim; Kohlsdorfer, Christian; Buehner, Klaus; Brandenburger, Tim; Kruk, Renate, “High-throughput determination of the free fraction of drugs strongly bound to plasma proteins.” Journal of Pharmaceutical Sciences 2004, 93, 816-830.
# Determination of the Membrane Affinity of a Test Substance After Partitioning Between Transil® and Buffer (MAbuffer):
# All incubations are carried out in suitable glass vessels, e.g. glass vials, ground-joint test tubes. The total volume is usually 0.5-5 ml, and the Transil® volume is 10-100 μl. If the membrane affinities are expected to be high, the Transil® dispersion can be diluted up to 20 times with phosphate buffer of pH 7.4, e.g. Dulbecco's PBS. Phosphate buffer of pH 7.4 is introduced into the incubation vessels, and the Transil® is pipetted in after thorough mixing. The test substance is pipetted in at a concentration of, for example, 200 ng/ml, n=6. The proportion of organic solvents should be ≦2%. The mixtures are incubated at room temperature i.e. on a mini-shaker at an angle of about 45°, at about 400 rpm for 30 min. The 100% value is determined by taking at least one aliquot of, for example, 100 μl, and the remaining mixture is centrifuged at about 1800 g for about 10 min. […]
# The plasma of the species to be investigated is filtered through a semipermeable membrane. The concentration of substance in the filtrate is measured, and the free fraction fU is calculated therefrom. […] The concentration of substance in the ultrafiltrate (Cu, unbound substance concentration) and in the plasma before centrifugation (C; total substance concentration) is measured. The free fraction is calculated by the formula fu (%)=Cu/C*100.
# [4] = Isosensitest medium, 10^5 microbes per ml, 37° C., 18-24 hours
# [5] = BHI broth with 10% bovine serum, 10^6 microbes per ml, 37° C., 18-24 hours, 10% CO2
# [6] = free fraction in rat plasma, read-out: fu (rat)
# [7] = Isosensitest medium, 10^5 microbes per ml, 37° C., 18-24 hours, trishydrochloride
compound,measurement,setting,value
"CC[C@H](C)[C@@H]1NC(=O)[C@@H](CCCNC(=N)N)NC(=O)[C@H](CC(C)C)NC(=O)[C@H]([C@H](O)C(C)C)NC(=O)[C@@H](NC(=O)[C@H](CC(C)C)NC(=O)[C@H](N)CC(C)C)[C@@H](c2ccccc2)OC(=O)[C@H](CO)NC(=O)[C@H]([C@H](O)C(N)=O)NC(=O)CNC(=O)[C@H]([C@H](C)O)NC1=O [Example 1A, D-Leucyl-N^1-4-{(3S,6S,12S,15S,18R,21S,24S,27S,28R)-6-[(1S)-2-amino-1-hydroxy-2-oxoethyl]-18-(3-{[amino(imino)methyl]amino}propyl)-12-[(1S)-1-hydroxyethyl]-3-(hydroxymethyl)-24-[(1R)-1-hydroxy-2-methylpropyl]-21-isobutyl-15-[(1S)-1-methylpropyl]-2,5,8,11,14,17,20,23,26-nonaoxo-28-phenyl-1-oxa-4,7,10,13,16,19,22,25-octaazacyclooctacosan-27-yl}-L-leucinamide bistrifluoroacetate (lysobactin), reference compound] (H-[dL]L[Phe(3R-OH)][Leu(3R-OH)]L[dR]I[aThr]G[Asn(3S-OH)]S; ester 3-C)",MIC S. aureus 133,[1]; [4],0.5 mg/L
same,MIC S. pneumoniae G9a,[2]; [5],0.063 mg/L
same,MIC E. faecium L4001,E. faecium L4001,0.5 mg/L
same,MIC E. faecalis ICB 27159,E. faecalis ICB 27159; [4],0.5 mg/L
same,fraction unbound at 30 min,[3]; [6],0.0067
"CC[C@H](C)[C@@H]1NC(=O)[C@@H](CCCNC(=N)N)NC(=O)[C@H](CC(C)C)NC(=O)[C@H]([C@H](O)C(C)C)NC(=O)[C@@H](NC(=O)[C@H](Cc2cccnc2)NC(=O)[C@H](N)C[Si](C)(C)C)[C@@H](c2ccccc2)OC(=O)[C@H](CO)NC(=O)[C@H]([C@H](O)C(N)=O)NC(=O)CNC(=O)[C@H]([C@H](C)O)NC1=O [Example 2, 3-(Trimethylsilyl)-D-alanyl-3-(pyridin-3-yl)-L-alanyl-de(1-D-leucyl-2-L-leucyl)-lysobactin tristrifluoroacetate] (H-[dAla(TMS)][3Pal][Phe(3R-OH)][Leu(3R-OH)]L[dR]I[aThr]G[Asn(3S-OH)]S; ester 3-C)",MIC S. aureus 133,[1]; [4],0.125 mg/L
same,MIC S. pneumoniae G9a,[2]; [5],0.125 mg/L
same,MIC E. faecium L4001,E. faecium L4001,1 mg/L
same,MIC E. faecalis ICB 27159,E. faecalis ICB 27159; [4],0.5 mg/L
same,fraction unbound at 30 min,[3]; [6],0.123
"CC[C@H](C)[C@@H]1NC(=O)[C@@H](CCCNC(=N)N)NC(=O)[C@H](CC(C)C)NC(=O)[C@H]([C@H](O)C(C)C)NC(=O)[C@@H](NC(=O)[C@H](Cc2cccnc2)NC(=O)[C@H](N)C[Si](C)(C)C)[C@@H](c2ccccc2)OC(=O)[C@H](CO)NC(=O)[C@H]([C@H](O)C(N)=O)NC(=O)CNC(=O)[C@H]([C@H](C)O)NC1=O [Example 3, 3-(Trimethylsilyl)-D-alanyl-3-(pyridin-3-yl)-L-alanyl-de(1-D-leucyl-2-L-leucyl)-lysobactin trismethanesulphonate] (H-[dAla(TMS)][3Pal][Phe(3R-OH)][Leu(3R-OH)]L[dR]I[aThr]G[Asn(3S-OH)]S; ester 3-C)",MIC S. aureus 133,[1]; [4],0.5 mg/L
"CC[C@H](C)[C@H](NC(=O)[C@@H](CCCNC(=N)N)NC(=O)[C@H](CC(C)C)NC(=O)[C@@H](C)[C@H](O)C(C)C)C(=O)N[C@H](C(=O)NCC(=O)N[C@H](C(=O)N[C@@H](CO)C(=O)O[C@H](c1ccccc1)[C@H](NC(=O)[C@H](Cc1cccnc1)NC(=O)[C@H](N)CC(C)(C)CC)C(N)=O)[C@H](O)C(N)=O)[C@H](C)O.O=C(O)C(F)(F)F.O=C(O)C(F)(F)F.O=C(O)C(F)(F)F [Example 4, 4,4-Dimethyl-D-norleucyl-3-(pyridin-3-yl)-L-alanyl-de(1-D-leucyl-2-L-leucyl)lysobactin tristrifluoroacetate] (X1-L[dR]I[aThr]G[Asn(3S-OH)]S-X3)",MIC S. aureus 133,[1]; 133,0.25 mg/L
same,MIC S. pneumoniae G9a,[2]; G9a,0.125 mg/L
same,MIC E. faecalis ICB 27159,E. faecalis ICB 27159; ICB 27159,1 mg/L
same,fraction unbound at 30 min,"[3]; rat, plasma",0.061
"CC[C@H](C)[C@@H]1NC(=O)[C@@H](CCCNC(=N)N)NC(=O)[C@H](CC(C)C)NC(=O)[C@H]([C@H](O)C(C)C)NC(=O)[C@@H](NC(=O)[C@H](Cc2cccnc2)NC(=O)[C@H](N)C[Si](C)(C)C)[C@@H](c2ccccc2)OC(=O)[C@H](CO)NC(=O)[C@H]([C@H](O)C(N)=O)NC(=O)CNC(=O)[C@H]([C@H](C)O)NC1=O [Example 6, (Trimethylsilyl)-D-alanyl-3-(pyridin-3-yl)-L-alanyl-de(1-D-leucyl-2-L-leucyl)lysobactin trishydrochloride] (H-[dAla(TMS)][3Pal][Phe(3R-OH)][Leu(3R-OH)]L[dR]I[aThr]G[Asn(3S-OH)]S; ester 3-C)",MIC S. aureus 133,[1]; [7],<0.063 mg/L
same,MIC S. pneumoniae G9a,"[2]; BHI broth with 10% bovine serum, 10^6 microbes per ml, 37° C., 18-24 hours, 10% CO2, trishydrochloride",<0.063 mg/L
same,MIC E. faecalis ICB 27159,E. faecalis ICB 27159; [7],1 mg/L
"CC[C@H](C)[C@@H]1NC(=O)[C@@H](CCCNC(=N)N)NC(=O)[C@H](CC(C)C)NC(=O)[C@H]([C@H](O)C(C)C)NC(=O)[C@@H](NC(=O)[C@H](Cc2cccnc2)NC(=O)[C@H](N)C[Si](C)(C)C)[C@@H](c2ccccc2)OC(=O)[C@H](CO)NC(=O)[C@H]([C@H](O)C(N)=O)NC(=O)CNC(=O)[C@H]([C@H](C)O)NC1=O [Example 7, (Trimethylsilyl)-D-alanyl-3-(pyridin-3-yl)-L-alanyl-de(1-D-leucyl-2-L-leucyl)lysobactin tris-L-lactate] (H-[dAla(TMS)][3Pal][Phe(3R-OH)][Leu(3R-OH)]L[dR]I[aThr]G[Asn(3S-OH)]S; ester 3-C)",MIC S. aureus 133,[1]; [4],0.063 mg/L
same,MIC E. faecalis ICB 27159,E. faecalis ICB 27159; [4],1 mg/L
"CC[C@H](C)[C@@H]1NC(=O)[C@@H](CCCNC(=N)N)NC(=O)[C@H](CC(C)C)NC(=O)[C@H]([C@H](O)C(C)C)NC(=O)[C@@H](NC(=O)[C@H](Cc2cccnc2)NC(=O)[C@H](N)C[Si](C)(C)C)[C@@H](c2ccccc2)OC(=O)[C@H](CO)NC(=O)[C@H]([C@H](O)C(N)=O)NC(=O)CNC(=O)[C@H]([C@H](C)O)NC1=O [Example 8, (Trimethylsilyl)-D-alanyl-3-(pyridin-3-yl)-L-alanyl-de(1-D-leucyl-2-L-leucyl)lysobactin tris-D-tartrate] (H-[dAla(TMS)][3Pal][Phe(3R-OH)][Leu(3R-OH)]L[dR]I[aThr]G[Asn(3S-OH)]S; ester 3-C)",MIC S. aureus 133,[1]; [4],0.25 mg/L
same,MIC E. faecalis ICB 27159,E. faecalis ICB 27159; [4],2 mg/L
